Converted amounts (≈) assume the structure as drawn. Read-outs that look alike come from different tables or passages of the source.
What was measured:
[1] = test system: E. coli ATCC 11 775; assay: experimental E. coli infection in mice; type: in vivo, mice (female, NMRI strain); conditions: Escherichia coli, ATCC11, sc, 168 h, s.c. administration, once 1 hour after intraperitoneal infection, observation 7 days, read-out: ED50 (dose at which 50% of the animals survive)
Procedure: Test compounds A-D of the invention and cefuroxim were tested in vivo against experimental infections in mice. E.coli ATCC 11 775 was used as the pathogenic bacteria. An intraperitoneal infection was induced with 0.2 ml of a 5% mucin suspension of the bacteria. This corresponds to approximately 1.4×10^6 E. coli bacteria per mouse. […] The treatment was applied once (1 hour after infection). The observation period was 7 days.

[2] = test system: Proteus mirabilis BC 17; assay: serial dilution test in the microtiter system (MIC); type: cell-based; conditions: BC17, Prot. mirab. BC 17, 37° C., 18 to 20 hours
Procedure: (§1) The tests were performed using the serial dilution test in the microtiter system. […] The nutrient medium consisted of 10 gm of peptone, 8 gm of meat extract oxoid, 3 gm of sodium chloride, and 2 gm of sec. sodium phosphate diluted with distilled water to 100 ml (pH 7.2-7.4). The age of the primary cultures was approximately 20 hours. The standardization of the bacteria suspension was effected using a photometer according to the method of Eppendorf (test tube .phi. 14 mm, filter 546 nm), using for comparison a barium sulfate suspension formed by the addition of 3.0 ml of 1% barium chloride solution to 97 ml of 1% sulfuric acid. After standardization, the test microorganisms were further diluted to a concentration of 1:1500, using a sodium chloride solution.
(§2) 16 mgm of the particular test compound were put into a 10 ml measuring flask, and the flask was subsequently filled to the mark with the solvent. The further dilution series was standardized with distilled water or the appropriate solvent.
(§3) The depressions of the microtiter plates were filled with 0.2 ml of nutrient medium. 0.01 ml of the appropriate test compound solution was then added, followed by inoculation with 0.01 ml (1 drop) of the standardized bacteria suspension. The bacteria were incubated at 37° C. for 18 to 20 hours. Control tests using only the solvent were carried out simultaneously.
(§4) The readings were made macroscopically to determine the minimum inhibitory concentration (the lowest still bacteriostatically effective concentration).
(§5) The following test organisms were used:
(§6) Staphylococcus aureus SG 511, Escherichia coli ATCC 11 775, Pseudomonas aeruginosa hamburgensis and Pseudomonas aeruginosa BC 19, Serratia marcescens ATCC 13 880, Klebsiella pneumoniae ATCC 10 031 and BC 6, Proteus mirabilis BC 17, Proteus rettgeri BC 7, Enterobacter Cloaceae ATCC 13047 and E. coli R+TEM (β-lactamase carrier).

[3] = test system: Serratia marcescens ATCC 13 880; assay: as above; type: cell-based; conditions: Serr. marcesc. ATCC 13880, 37° C., 18 to 20 hours
Procedure: as §1, §2, §3, §4, §5, §6

[4] = test system: Staphylococcus aureus SG 511; assay: as above; type: cell-based; conditions: SG511, Staph. aureus SG 511, 37° C., 18 to 20 hours
Procedure: as §1, §2, §3, §4, §5, §6

[5] = test system: Klebsiella pneumoniae BC 6; assay: as above; type: cell-based
Procedure: as §1, §2, §3, §4, §5, §6

[6] = test system: Escherichia coli ATCC 11 775; assay: as above; type: cell-based; conditions: E. coli ATCC 11775, 37° C., 18 to 20 hours
Procedure: as §1, §2, §3, §4, §5, §6

[7] = test system: Klebsiella pneumoniae ATCC 10 031; assay: as above; type: cell-based; conditions: Kl. pneum. ATCC 10031, 37° C., 18 to 20 hours
Procedure: as §1, §2, §3, §4, §5, §6

[8] = test system: E. coli R+TEM (β-lactamase carrier); assay: as above; type: cell-based; conditions: Escherichia coli
Procedure: as §1, §2, §3, §4, §5, §6

[9] = test system: Proteus rettgeri BC 7; assay: as above; type: cell-based; conditions: Providencia rettgeri, BC7; Prot. rettg.; 37° C., 18 to 20 hours
Procedure: as §1, §2, §3, §4, §5, §6

[10] = test system: Pseudomonas aeruginosa BC 19; assay: as above; type: cell-based
Procedure: as §1, §2, §3, §4, §5, §6

[11] = test system: Pseudomonas aeruginosa hamburgensis; assay: as above; type: cell-based
Procedure: as §1, §2, §3, §4, §5, §6

[12] = test system: Enterobacter Cloaceae ATCC 13047; assay: as above; type: cell-based; conditions: Ent. cloacae ATCC 13047; 37° C., 18 to 20 hours
Procedure: as §1, §2, §3, §4, §5, §6

[13] = BC6, Kl. pneum. BC 6, 37° C., 18 to 20 hours, read-out: MIC
[14] = Pseud. Hbg., 37° C., 18 to 20 hours, read-out: MIC
[15] = BC19, Pseud. BC 19, 37° C., 18 to 20 hours, read-out: MIC

SMILES: O=C(Nc1cnc(NCc2cccnc2)nc1O)N[C@@H](C(=O)N[C@@H]1C(=O)N2C(C(=O)O)=C(CSc3nnnn3CCO)CS[C@H]12)c1ccc(O)cc1 [A, Sodium 7β-{D-α-[3-(4-hydroxy-2-(3'-pyridylmethylamino)-5-pyrimidinyl)-ureido]-p-hydroxyphenylacetamido}-3-{[1-(2'-hydroxyethyl)-tetrazol-5-yl]-thiomethyl}-ceph-3-em-4-carboxylate]
- ED50 [1]: 0.9 mg/kg
- MIC [2]: 0.12 µg/mL
- MIC [3]: 0.25 µg/mL
- MIC [4]: 1 µg/mL
- MIC [5, 13]: 0.5 µg/mL
- MIC [6]: 0.12 µg/mL
- MIC [7]: 0.25 µg/mL
- MIC [8]: 8 µg/mL
- MIC [9]: 0.5 µg/mL
- MIC ([10]; BC19): 4 µg/mL
- MIC [11]: 8 µg/mL
- MIC [12]: 0.5 µg/mL

SMILES: NS(=O)(=O)c1ccc(CNc2ncc(NC(=O)N[C@@H](C(=O)N[C@@H]3C(=O)N4C(C(=O)O)=C(CSc5nnnn5CCO)CS[C@H]34)c3ccc(O)cc3)c(O)n2)s1 [B]
- ED50 [1]: 0.4 mg/kg
- MIC [2]: 0.12 µg/mL (≈ 0.144 µM)
- MIC [3]: 0.25 µg/mL (≈ 0.299 µM)
- MIC [4]: 1 µg/mL (≈ 1.2 µM)
- MIC [5, 13]: 0.25 µg/mL (≈ 0.299 µM)
- MIC [6]: 0.06 µg/mL (≈ 0.0719 µM)
- MIC [7]: 0.12 µg/mL (≈ 0.144 µM)
- MIC [8]: 4 µg/mL (≈ 4.79 µM)
- MIC [9]: 0.25 µg/mL (≈ 0.299 µM)
- MIC ([10]; BC19): 2 µg/mL (≈ 2.4 µM)
- MIC [11, 14]: 4 µg/mL (≈ 4.79 µM)
- MIC [12]: 0.25 µg/mL (≈ 0.299 µM)

SMILES: NC(=O)CCn1nnnc1SCC1=C(C(=O)O)N2C(=O)[C@@H](NC(=O)[C@H](NC(=O)Nc3cnc(NCc4ccc(S(N)(=O)=O)s4)nc3O)c3ccc(O)cc3)[C@H]2SC1 [C, Sodium 7β-{D-α-[3-(2-(5'-aminosulfonyl-2'-thienylmethylamino)-4-hydroxy-5-pyrimidinyl)-ureido]-p-hydroxyphenylacetamido}-3-{[1-(2'-aminocarbonylethyl)-tetrazol-5-yl]-thiomethyl}ceph-3-em-4-carboxylate]
- ED50 [1]: 0.7 mg/kg
- MIC [2]: 0.25 µg/mL
- MIC [3]: 0.5 µg/mL
- MIC [4]: 1 µg/mL
- MIC [5, 13]: 0.25 µg/mL
- MIC [6]: 0.12 µg/mL
- MIC [7]: 0.25 µg/mL
- MIC [8]: 4 µg/mL
- MIC [9]: 0.5 µg/mL
- MIC [10, 15]: 4 µg/mL
- MIC [11, 14]: 4 µg/mL
- MIC [12]: 0.25 µg/mL

SMILES: CO/N=C(\C(=O)N[C@@H]1C(=O)N2C(C(=O)O)=C(COC(N)=O)CS[C@H]12)c1ccco1 [Cefuroxim, cefuroxim, reference compound]
- ED50 [1]: > 100 mg/kg
- MIC [2]: 0.5 µg/mL (≈ 1.18 µM)
- MIC [3]: 8 µg/mL (≈ 18.9 µM)
- MIC [4]: 1 µg/mL (≈ 2.36 µM)
- MIC ([5]; BC6): 4 µg/mL (≈ 9.43 µM)
- MIC [6]: 8 µg/mL (≈ 18.9 µM)
- MIC [7]: 2 µg/mL (≈ 4.71 µM)
- MIC [8]: 4 µg/mL (≈ 9.43 µM)
- MIC [9]: 2 µg/mL (≈ 4.71 µM)
- MIC [12]: 32 µg/mL (≈ 75.4 µM)

SMILES: CS(=O)(=O)CCn1nnnc1SCC1=C(C(=O)O)N2C(=O)[C@@H](NC(=O)[C@H](NC(=O)Nc3cnc(NCc4ccco4)nc3O)c3ccc(O)cc3)[C@H]2SC1 [D, Sodium 7β-{D-α-[3-(2-(2'-furylmethylamino)-4-hydroxy-5-pyrimidinyl)-ureido]-p-hydroxyphenylacetamido}-3-{[1-(2'-methylsulfonylethyl)tetrazol-5-yl]-thiomethyl}-ceph-3-em-4-carboxylate]
- ED50 [1]: 1 to 2 mg/kg
- MIC [2]: 0.25 µg/mL
- MIC [3]: 0.5 µg/mL
- MIC [4]: 0.5 µg/mL
- MIC [5, 13]: 0.5 µg/mL
- MIC [6]: 0.25 µg/mL
- MIC [7]: 0.25 µg/mL
- MIC [8]: 8 µg/mL
- MIC [9]: 1 µg/mL
- MIC [10, 15]: 8 µg/mL
- MIC [11, 14]: 8 µg/mL
- MIC [12]: 0.5 µg/mL

Source: patent US4401667A, “Cephalosporins” (Karl Thomae Gesellschaft mit beschrankter Haftung, priority 1980, dated 1983)
